Results published in ChEMBL document CHEMBL4033764, “Seeking (and Finding) Biased Ligands of the Kappa Opioid Receptor” (ACS Med Chem Lett, 2017).

Biological target: Kappa-type opioid receptor (Homo sapiens, UniProt P41145)
Test: Agonist activity at human kappa opioid receptor expressed in CHO cells assessed as beta-arrestin2 recruitment by enzyme fragment complementation method
Type: cell-based

Chain of Kappa-type opioid receptor (P41145 whole entry, the tested form may be a part): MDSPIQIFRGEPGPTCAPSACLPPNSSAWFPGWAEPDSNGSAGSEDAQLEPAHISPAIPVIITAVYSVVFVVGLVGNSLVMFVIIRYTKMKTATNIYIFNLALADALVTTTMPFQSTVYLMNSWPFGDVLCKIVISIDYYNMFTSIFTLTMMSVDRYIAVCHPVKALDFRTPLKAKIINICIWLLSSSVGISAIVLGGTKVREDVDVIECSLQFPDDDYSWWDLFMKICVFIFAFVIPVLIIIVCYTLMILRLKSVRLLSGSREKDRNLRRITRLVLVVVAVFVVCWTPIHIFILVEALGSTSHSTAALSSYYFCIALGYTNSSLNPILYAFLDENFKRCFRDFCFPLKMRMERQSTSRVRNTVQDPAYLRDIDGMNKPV

Point of comparison: `CN(CCc1ccc(Cl)c(Cl)c1)[C@@H]1CCCC[C@H]1N1CCCC1`, EC50 0.0566 µM. Against it:
- Cc1cc(CSc2nnc(-c3ccccn3)n2Cc2ccco2)ccc1C(F)(F)F — 73-fold higher, 4.13 µM
- O=C(Nc1ccc(Cl)c(C(F)(F)F)c1)[C@H]1CC=C[C@H]2CCN(Cc3ccccc3)C(=O)[C@@H]12 — higher, > 10 µM
